According to patent US8552004B2, “Chemical compounds” (AstraZeneca AB, priority 2010, dated 2013):
pIC50: −log10 of the molar value. “And” between values parts separate entries of the source, which are not always exact repeats. Equal values may be shown once.

Assays:
HT29 cells = test: Cellular SRB assay, potentiation of carboplatin (Test (c)); type: cell-based, human; conditions: HT29 cell growth, Carboplatin alone, 5 days, SRB
Method: (c) Cellular—SRB Assay The potentiation factor (PF50) for compounds is a measure of the fold increase in effect of a chemotherapeutic agent, when used in combination with an ATR inhibitor. Specifically, this is calculated as a ratio of the IC50 of control cell growth in the presence of a chemotherapeutic agent, typically carboplatin, divided by the IC50 of cell growth in the presence of this agent and the ATR inhibitor of interest. For this purpose, HT29 cells were seeded at the appropriate density to ensure exponential growth throughout the time of the assay (typically 1000-1500 cells) in each well of a 96-well plate, in a volume of 80 μl and incubated overnight at 37° C. Subsequently, cells were dosed with either DMSO vehicle, or treated with test compounds at fixed concentrations (typically 1, 0.3 & 0.1 μM). Following a one hour incubation at 37° C., the cells were further treated with a 10 point dose response of the chemotherapeutic agent, based on it's known sensitivity (typically 30-0.001 ug/ml for carboplatin). Cells were left to grow for 5 days at 37° C., after which time cell growth was assessed using the sulforhodamine B (SRB) assay (Skehan, P et al, 1990 New colorimetric cytotoxic assay for anticancer-drug screening. J. Natl. Cancer Inst. 82, 1107-1112.). Specifically, the media was removed and cells fixed with 100 μl of ice cold 10% (w/v) trichloroacetic acid. The plates were then incubated at 4° C. for 20 minutes prior to washing 4 times with water. Each well was then stained with 100 μL of 0.4% (w/v) SRB in 1% acetic acid for 20 minutes before a further 4 washes with 1% acetic acid. Plates were then dried for 2 hours at room temperature and the dye was solubilized by the addition of 100 μL Tris Base pH 8.5 into each well. Plates were shaken before measuring optical density at 564 nm (OD564). In order to calculate the PF50, the OD564 values obtained for the dose-response curve of chemotherapeutic agent were expressed as a percentage of the value obtained from cells treated with vehicle alone. Similarly, to act as a control for inclusion of the ATR inhibitor, values from the chemotherapeutic agent tested in combination with a fixed ATR inhibitor concentration were expressed as a percentage of the value obtained from cells treated with the corresponding concentration of ATR inhibitor alone. From these internally-controlled curves, IC50 values were calculated and the PF50 was determined as the ratio of these values, as described above. Compounds are compared using the PF50 value at concentrations of ATR inhibitor that show minimal growth inhibition on their own. IC50 values were calculated with XLfit (IDBS, Surrey UK) using the dose response, 4 parameter logistic model #203. Top (max) and bottom (min) curve fitting was free and not locked to 100% to 0% respectively.

ATR = ATR (Homo sapiens (Human), UniProt Q13535); test: Cellular Assay - ATR, phosphorylation of Chk1 (Ser 345) in HT29 cells after 4NQO (Test (b)); type: cell-based; conditions: cell assay Test (b); pChk1 Ser345 in HT29 cells, 3 μM 4NQO; arithmetic mean
Excerpt: ATM and ATR have distinct and overlapping responses to DNA damage. They must participate together and responses must be co-ordinated. Both pathways may be activated by ionising radiation, however only ATR is activated by UV. Since UV treatment is not practical for use in a high throughput cell assay, the UV mimetic 4NQ0 (Sigma) was chosen to activate the ATR DNA damage response pathway.
Chk1, a downstream protein kinase of ATR, plays a key role in DNA damage checkpoint control. Activation of Chk1 involves phosphorylation of Ser317 and Ser345 (regarded as the preferential target for phosphorylation/activation by ATR). […] Compounds dose ranges were created by diluting in 100% DMSO and then further into assay media (EMEM, 10% FCS, 1% glutamine) using a Labcyte Echo Acoustic dispensing instrument. Cells were plated in 384 well Costar plates at 9×10^4 cells per ml in 40 μL EMEM, 10% FCS, 1% glutamine and grown for 24 hrs. Following addition of compound the cells were incubated for 60 minutes. A final concentration of 3 μM 4NQ0 (prepared in 100% DMSO) was then added using the Labcyte Echo and the cells incubated for a further 60mins. The cells are then fixed by adding 40 μL 3.7% v/v formaldehyde solution for 20 minutes. After removal of fix, cells were washed with PBS and permeabilised in 40 μL of PBS containing 0.1% Triton™ X-100. Cells are then washed and 15 μl primary antibody solution (pChk1 Ser345) added and the plates incubated at 4° C. overnight. […] The plates are washed and left in 40 μl PBS. Plates were then read on an ArrayS can Vti instrument to determine staining intensities, and dose responses were obtained and used to determine the IC50 values for the compounds.

Chain of ATR (Q13535 whole entry): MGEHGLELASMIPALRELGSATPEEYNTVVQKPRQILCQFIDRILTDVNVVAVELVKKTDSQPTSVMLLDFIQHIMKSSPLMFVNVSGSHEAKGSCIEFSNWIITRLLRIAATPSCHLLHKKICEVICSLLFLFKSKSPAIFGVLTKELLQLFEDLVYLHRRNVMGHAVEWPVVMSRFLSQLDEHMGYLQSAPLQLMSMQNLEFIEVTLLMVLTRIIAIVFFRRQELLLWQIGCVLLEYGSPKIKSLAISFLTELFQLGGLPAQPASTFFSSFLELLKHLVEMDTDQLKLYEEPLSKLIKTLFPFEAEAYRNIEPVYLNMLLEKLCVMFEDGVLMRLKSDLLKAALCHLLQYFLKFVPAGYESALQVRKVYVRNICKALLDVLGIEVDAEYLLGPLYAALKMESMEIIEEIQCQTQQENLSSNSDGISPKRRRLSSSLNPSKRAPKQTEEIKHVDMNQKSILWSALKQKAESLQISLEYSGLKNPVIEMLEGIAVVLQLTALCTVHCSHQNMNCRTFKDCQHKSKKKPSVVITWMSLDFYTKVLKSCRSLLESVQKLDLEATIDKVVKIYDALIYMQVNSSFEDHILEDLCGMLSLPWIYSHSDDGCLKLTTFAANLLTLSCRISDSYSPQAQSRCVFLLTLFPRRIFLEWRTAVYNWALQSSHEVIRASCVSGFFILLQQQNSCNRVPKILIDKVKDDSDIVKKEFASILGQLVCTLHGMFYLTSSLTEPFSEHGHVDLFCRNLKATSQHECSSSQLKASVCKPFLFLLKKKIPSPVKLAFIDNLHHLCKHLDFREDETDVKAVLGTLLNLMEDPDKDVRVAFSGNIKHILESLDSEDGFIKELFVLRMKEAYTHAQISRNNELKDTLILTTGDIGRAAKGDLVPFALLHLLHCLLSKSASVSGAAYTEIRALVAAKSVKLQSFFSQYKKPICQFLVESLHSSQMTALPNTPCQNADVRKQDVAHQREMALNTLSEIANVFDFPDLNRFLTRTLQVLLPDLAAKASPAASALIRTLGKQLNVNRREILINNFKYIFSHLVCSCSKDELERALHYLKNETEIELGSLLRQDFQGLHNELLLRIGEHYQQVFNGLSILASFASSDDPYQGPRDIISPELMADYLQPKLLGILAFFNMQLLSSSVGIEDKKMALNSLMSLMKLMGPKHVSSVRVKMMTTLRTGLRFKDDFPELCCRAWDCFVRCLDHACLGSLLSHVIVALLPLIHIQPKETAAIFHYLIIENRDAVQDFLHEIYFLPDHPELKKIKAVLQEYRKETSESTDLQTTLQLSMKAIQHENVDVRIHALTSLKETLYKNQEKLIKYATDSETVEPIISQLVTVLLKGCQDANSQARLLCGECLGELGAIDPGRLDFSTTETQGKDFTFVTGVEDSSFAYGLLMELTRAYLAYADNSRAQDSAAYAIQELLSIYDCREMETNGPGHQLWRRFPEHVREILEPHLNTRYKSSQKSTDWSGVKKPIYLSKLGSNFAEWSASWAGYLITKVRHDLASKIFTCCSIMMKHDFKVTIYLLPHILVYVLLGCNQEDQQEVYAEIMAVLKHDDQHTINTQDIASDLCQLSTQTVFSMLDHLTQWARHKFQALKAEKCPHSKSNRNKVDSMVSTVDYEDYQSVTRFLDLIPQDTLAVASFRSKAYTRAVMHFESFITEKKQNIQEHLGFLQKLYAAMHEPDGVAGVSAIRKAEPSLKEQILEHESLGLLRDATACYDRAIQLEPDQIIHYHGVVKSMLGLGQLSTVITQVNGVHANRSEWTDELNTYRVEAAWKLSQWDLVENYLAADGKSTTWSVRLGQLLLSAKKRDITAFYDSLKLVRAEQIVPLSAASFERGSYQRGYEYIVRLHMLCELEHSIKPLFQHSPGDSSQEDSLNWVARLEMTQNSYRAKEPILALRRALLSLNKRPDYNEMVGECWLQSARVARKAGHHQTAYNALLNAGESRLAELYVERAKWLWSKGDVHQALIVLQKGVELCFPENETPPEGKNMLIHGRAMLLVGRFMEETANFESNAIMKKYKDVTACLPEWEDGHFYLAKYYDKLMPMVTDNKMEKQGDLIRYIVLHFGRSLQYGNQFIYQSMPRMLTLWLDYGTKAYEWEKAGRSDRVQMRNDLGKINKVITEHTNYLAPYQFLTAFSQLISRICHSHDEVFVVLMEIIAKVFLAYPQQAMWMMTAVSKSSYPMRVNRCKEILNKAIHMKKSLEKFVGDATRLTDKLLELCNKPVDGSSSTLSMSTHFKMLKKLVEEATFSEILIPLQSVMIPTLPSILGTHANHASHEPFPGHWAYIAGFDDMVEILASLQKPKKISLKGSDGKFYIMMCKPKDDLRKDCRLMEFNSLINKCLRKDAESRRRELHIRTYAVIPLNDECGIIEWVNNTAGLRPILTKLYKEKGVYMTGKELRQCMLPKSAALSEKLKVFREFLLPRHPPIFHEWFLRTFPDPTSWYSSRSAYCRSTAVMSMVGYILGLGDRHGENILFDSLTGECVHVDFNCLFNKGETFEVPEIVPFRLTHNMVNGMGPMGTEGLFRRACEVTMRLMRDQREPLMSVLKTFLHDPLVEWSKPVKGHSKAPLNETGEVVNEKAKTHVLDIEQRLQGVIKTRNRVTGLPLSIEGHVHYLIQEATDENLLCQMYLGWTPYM
Chain of ATR (Q8WXE1 whole entry partner): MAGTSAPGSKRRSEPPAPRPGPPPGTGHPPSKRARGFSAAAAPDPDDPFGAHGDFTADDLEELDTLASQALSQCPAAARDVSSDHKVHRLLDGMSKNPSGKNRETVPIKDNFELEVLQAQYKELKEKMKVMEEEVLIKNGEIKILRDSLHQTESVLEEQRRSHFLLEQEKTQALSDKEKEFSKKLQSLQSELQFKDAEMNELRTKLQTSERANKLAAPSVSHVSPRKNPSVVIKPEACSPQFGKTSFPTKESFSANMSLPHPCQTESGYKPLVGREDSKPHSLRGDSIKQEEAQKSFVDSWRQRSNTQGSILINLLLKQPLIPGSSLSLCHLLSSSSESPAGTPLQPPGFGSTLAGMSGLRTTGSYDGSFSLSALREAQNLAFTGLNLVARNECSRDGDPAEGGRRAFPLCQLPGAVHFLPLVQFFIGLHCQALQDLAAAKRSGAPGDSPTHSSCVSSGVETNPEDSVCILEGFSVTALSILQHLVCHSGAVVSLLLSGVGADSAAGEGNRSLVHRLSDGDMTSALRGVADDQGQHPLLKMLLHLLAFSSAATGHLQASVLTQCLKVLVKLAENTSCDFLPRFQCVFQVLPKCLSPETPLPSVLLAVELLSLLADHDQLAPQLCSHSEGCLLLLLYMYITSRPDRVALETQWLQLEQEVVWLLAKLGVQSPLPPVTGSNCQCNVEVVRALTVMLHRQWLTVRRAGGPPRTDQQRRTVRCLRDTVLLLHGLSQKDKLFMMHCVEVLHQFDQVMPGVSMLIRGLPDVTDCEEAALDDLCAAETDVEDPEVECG

pIC50 (ATR)	SMILES	IC50 (HT29 cells)
–	N.N.O=C([O-])C1(C(=O)[O-])CCC1.[Pt+2] [Carboplatin, reference compound]	12.519 µg/mL and 11.798 µg/mL
7.12	C[C@@H]1COCCN1c1cc(C2([S@](C)(=N)=O)CC2)nc(-c2cccc3[nH]ccc23)n1 [Example 2.05, 4-{4-[(3R)-3-Methylmorpholin-4-yl]-6-[1-((R)—S-methylsulfonimidoyl)cyclopropyl]pyrimidin-2-yl}-1H-indole]	–
7.89	C[C@@H]1COCCN1c1cc(C2([S@@](C)(=N)=O)CC2)nc(-c2cccc3[nH]ccc23)n1 [Example 2.06, 4-{4-[(3R)-3-methylmorpholin-4-yl]-6-[1-((S)—S-methylsulfonimidoyl)cyclopropyl]pyrimidin-2-yl}-1H-indole]	–
8.59	C[C@@H]1COCCN1c1cc(C2([S@](C)(=N)=O)CC2)nc(-n2c(N)nc3ccccc32)n1 [Example 2.07, 1-{4-[(3R)-3-Methylmorpholin-4-yl]-6-[1-((R)—S-methylsulfonimidoyl)cyclopropyl]pyrimidin-2-yl}-1H-benzimidazol-2-amine]	–
8.56	C[C@@H]1COCCN1c1cc(C2([S@@](C)(=N)=O)CC2)nc(-n2c(N)nc3ccccc32)n1 [Example 2.08, 1-{4-[(3R)-3-methylmorpholin-4-yl]-6-[1-((S)—S-methylsulfonimidoyl)cyclopropyl]pyrimidin-2-yl}-1H-benzimidazol-2-amine]	–
6.80	CNc1nc2c(F)cccc2n1-c1nc(N2CCOC[C@H]2C)cc(C2([S@](C)(=N)=O)CC2)n1 [Example 2.09, 4-Fluoro-N-methyl-1-{4-[(3R)-3-methylmorpholin-4-yl]-6-[1-((R)—S-methylsulfonimidoyl)cyclopropyl]pyrimidin-2-yl}-1H-benzimidazol-2-amine]	–
6.96	CNc1nc2c(F)cccc2n1-c1nc(N2CCOC[C@H]2C)cc(C2([S@@](C)(=N)=O)CC2)n1 [Example 2.10, 4-fluoro-N-methyl-{4-[(3R)-3-methylmorpholin-4-yl]-6-[1-((S)—S-methylsulfonimidoyl)cyclopropyl]pyrimidin-2-yl}-1H-benzimidazol-2-amine]	–
7.89	CNc1nc2ccccc2n1-c1nc(N2CCOC[C@H]2C)cc(C(C)(C)[S@@](C)(=N)=O)n1 [Example 3.01, N-methyl-1-{4-[1-methyl-1-((S)—S-methylsulfonimidoyl)ethyl]-6-[(3R)-3-methylmorpholin-4-yl]pyrimidin-2-yl}-1H-benzimidazol-2-amine]	–
8.07	CNc1nc2ccccc2n1-c1nc(N2CCOC[C@H]2C)cc(C(C)(C)[S@](C)(=N)=O)n1 [Example 3.02, N-methyl-1-{4-[1-methyl-1-((R)—S-methylsulfonimidoyl)ethyl]-6-[(3R)-3-methylmorpholin-4-yl]pyrimidin-2-yl}-1H-benzimidazol-2-amine]	–
7.27	CNc1nc2ccccc2n1-c1nc(N2CCOC[C@H]2C)cc(C2([S@@](C)(=N)=O)CCOCC2)n1 [Example 4.01, N-Methyl-1-{4-[(3R)-3-methylmorpholin-4-yl]-6-[4-((S)—S-methylsulfonimidoyl)tetrahydro-2H-pyran-4-yl]pyrimidin-2-yl}-1H-benzimidazol-2-amine]	–
7.40	CNc1nc2ccccc2n1-c1nc(N2CCOC[C@H]2C)cc(C2([S@](C)(=N)=O)CCOCC2)n1 [Example 4.02, N-methyl-1-{4-[(3R)-3-methylmorpholin-4-yl]-6-[4-((R)—S-methylsulfonimidoyl)tetrahydro-2H-pyran-4-yl]pyrimidin-2-yl}-1H-benzimidazol-2-amine]	–
7.29	C[C@@H]1COCCN1c1cc(C2([S@@](C)(=N)=O)CCOCC2)nc(-c2cccc3[nH]ccc23)n1 [Example 4.03]	–
7.20	CNc1nc2c(F)cccc2n1-c1nc(N2CCOC[C@H]2C)cc(C(C)(C)[S@@](C)(=N)=O)n1 [Example 5.01, 4-Fluoro-N-methyl-1-{4-[1-methyl-1-((S)—S-methylsulfonimidoyl)ethyl]-6-[(3R)-3-methylmorpholin-4-yl]pyrimidin-2-yl}-1H-benzimidazol-2-amine]	–
7.15	CNc1nc2c(F)cccc2n1-c1nc(N2CCOC[C@H]2C)cc(C(C)(C)[S@](C)(=N)=O)n1 [Example 5.02, 4-fluoro-N-methyl-1-{4-[1-methyl-1-((R)—S-methylsulfonimidoyl)ethyl]-6-[(3R)-3-methylmorpholin-4-yl]pyrimidin-2-yl}-1H-benzimidazol-2-amine]	–
7.48	CNc1nc2ccc(F)cc2n1-c1nc(N2CCOC[C@H]2C)cc(C(C)(C)[S@](C)(=N)=O)n1 [Example 5.03, 6-Fluoro-N-methyl-1-{4-[1-methyl-1-((R)—S-methylsulfonimidoyl)ethyl]-6-[(3R)-3-methylmorpholin-4-yl]pyrimidin-2-yl}-1H-benzimidazol-2-amine]	–
7.79	CNc1nc2cc(F)ccc2n1-c1nc(N2CCOC[C@H]2C)cc(C(C)(C)[S@](C)(=N)=O)n1 [Example 5.04, 5-Fluoro-N-methyl-1-{4-[1-methyl-1-((R)—S-methylsulfonimidoyl)ethyl]-6-[(3R)-3-methylmorpholin-4-yl]pyrimidin-2-yl}-1H-benzimidazol-2-amine]	–
7.74	CNc1nc2cc(F)ccc2n1-c1nc(N2CCOC[C@H]2C)cc(C(C)(C)[S@@](C)(=N)=O)n1 [Example 5.05, 5-Fluoro-N-methyl-1-{4-[1-methyl-1-((S)—S-methylsulfonimidoyl)ethyl]-6-[(3R)-3-methylmorpholin-4-yl]pyrimidin-2-yl}-1H-benzimidazol-2-amine]	–
7.35	CNc1nc2ccc(F)cc2n1-c1nc(N2CCOC[C@H]2C)cc(C(C)(C)[S@@](C)(=N)=O)n1 [Example 5.06, 6-fluoro-N-methyl-1-{4-[1-methyl-1-((S)—S-methylsulfonimidoyl)ethyl]-6-[(3R)-3-methylmorpholin-4-yl]pyrimidin-2-yl}-1H-benzimidazol-2-amine]	–
7.54	CNc1nc2ccc(F)cc2n1-c1nc(N2CCOC[C@H]2C)cc(C2([S@](C)(=N)=O)CC2)n1 [Example 5.07, 6-Fluoro-N-methyl-1-{4-[(3R)-3-methylmorpholin-4-yl]-6-[1-((R)—S-methylsulfonimidoyl)cyclopropyl]pyrimidin-2-yl}-1H-benzimidazol-2-amine]	–
8.00	CNc1nc2cc(F)ccc2n1-c1nc(N2CCOC[C@H]2C)cc(C2([S@](C)(=N)=O)CC2)n1 [Example 5.08, 5-fluoro-N-methyl-1-{4-[(3R)-3-methylmorpholin-4-yl]-6-[1-((R)—S-methylsulfonimidoyl)cyclopropyl]pyrimidin-2-yl}-1H-benzimidazol-2-amine]	–
7.75	CNc1nc2cc(F)ccc2n1-c1nc(N2CCOC[C@H]2C)cc(C2([S@@](C)(=N)=O)CC2)n1 [Example 5.09, 5-fluoro-N-methyl-1-{4-[(3R)-3-methylmorpholin-4-yl]-6-[1-((S)—S-methylsulfonimidoyl)cyclopropyl]pyrimidin-2-yl}-1H-benzimidazol-2-amine]	–
7.33	CNc1nc2ccc(F)cc2n1-c1nc(N2CCOC[C@H]2C)cc(C2([S@@](C)(=N)=O)CC2)n1 [Example 5.10, 6-fluoro-N-methyl-1-{4-[(3R)-3-methylmorpholin-4-yl]-6-[1-((S)—S-methylsulfonimidoyl)cyclopropyl]pyrimidin-2-yl}-1H-benzimidazol-2-amine]	–
